Measured values published in ChEMBL document CHEMBL1955733, “Optimization of 5-pyridazin-3-one phenoxypropylamines as potent, selective histamine H₃ receptor antagonists with potent cognition enhancing activity” (J Med Chem, 2012).

Experiments:
[1] = Clearance in Sprague-Dawley rat at 1 mg/kg, iv and 5 mg/kg, po; assay type: ADME, organism-based; details: in vivo
[2] = Half life in Sprague-Dawley rat at 1 mg/kg, iv and 5 mg/kg, po; assay type: ADME, organism-based; details: in vivo
Histamine H3 receptor [3] = target: Histamine H3 receptor (Rattus norvegicus, UniProt Q9QYN8); test: Displacement of [3H]NAMH from rat cloned […] expressed in CHO cells; assay type: cell-based
Chain of Histamine H3 receptor (Rattus norvegicus, UniProt Q9QYN8) (Q9QYN8 whole entry): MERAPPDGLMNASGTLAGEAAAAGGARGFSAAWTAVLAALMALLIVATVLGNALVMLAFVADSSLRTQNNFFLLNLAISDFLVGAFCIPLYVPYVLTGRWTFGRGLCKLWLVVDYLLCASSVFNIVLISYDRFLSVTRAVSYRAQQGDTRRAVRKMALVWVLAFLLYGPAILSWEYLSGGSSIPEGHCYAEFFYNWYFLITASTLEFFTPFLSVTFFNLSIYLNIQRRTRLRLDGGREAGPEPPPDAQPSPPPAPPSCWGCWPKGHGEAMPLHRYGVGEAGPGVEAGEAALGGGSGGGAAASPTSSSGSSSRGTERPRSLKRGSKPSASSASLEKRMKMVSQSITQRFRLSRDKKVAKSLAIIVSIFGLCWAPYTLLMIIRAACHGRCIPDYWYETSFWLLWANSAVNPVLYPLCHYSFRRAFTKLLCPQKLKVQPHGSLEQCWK

Histamine H3 receptor [4] = target: Histamine H3 receptor (Homo sapiens, UniProt Q9Y5N1); test: Displacement of [3H]NAMH from human cloned […] expressed in CHO cells; assay type: cell-based
Chain of Histamine H3 receptor (Homo sapiens, UniProt Q9Y5N1) (Q9Y5N1 whole entry): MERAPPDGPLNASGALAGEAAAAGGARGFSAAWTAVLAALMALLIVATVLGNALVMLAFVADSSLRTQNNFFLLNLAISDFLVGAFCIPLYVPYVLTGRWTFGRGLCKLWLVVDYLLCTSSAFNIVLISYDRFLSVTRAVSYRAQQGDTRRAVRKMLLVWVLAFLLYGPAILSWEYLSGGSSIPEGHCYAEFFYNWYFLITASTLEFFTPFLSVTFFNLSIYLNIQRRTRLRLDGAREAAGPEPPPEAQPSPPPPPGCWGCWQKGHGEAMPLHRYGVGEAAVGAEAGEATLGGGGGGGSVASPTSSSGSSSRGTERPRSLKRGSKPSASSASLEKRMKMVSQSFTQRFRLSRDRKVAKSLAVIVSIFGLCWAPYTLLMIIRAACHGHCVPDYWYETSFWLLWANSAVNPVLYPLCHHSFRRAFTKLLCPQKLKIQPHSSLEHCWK

[5] = Oral bioavailability in Sprague-Dawley rat at 5 mg/kg; assay type: ADME, organism-based; details: in vivo
[6] = Ratio of drug level in brain to plasma in Sprague-Dawley rat at 10 mg/kg, ip after 1 hr; assay type: ADME, organism-based; set-up: dose 10 mg/kg, route intraperitoneal; details: brain and plasma, read-out: BPR

SMILES | clearance [1] [mL/min/kg] | half-life [2] [h] | Ki (Histamine H3 receptor [3]) [nM] | Ki (Histamine H3 receptor [4]) [nM] | bioavailability [5] [%] | Kp at 1 h [6]
Cc1n[nH]c(=O)cc1-c1ccc(OCCCN2CCC[C@H]2C)cc1 | 25 | 1.4 | 5.1 | 1.6 | 20 | 1.6
Cc1nn(C)c(=O)cc1-c1ccc(OCCCN2CCCCC2)cc1 | 48 | 1.6 | 18 | 8.9 | 69 | 2.4
O=c1cc(-c2ccc(OCCCN3CCCCC3)cc2)cn[nH]1 | 24 | 1.6 | 28 | 19 | 42 | 3
Cc1n[nH]c(=O)cc1-c1ccc(OCCCN2CCCCCC2)cc1 | 54 | 1 | 7.5 | 4.8 | 25 | 1.2
C[C@H]1CCCN1CCCOc1ccc(-c2cnn(-c3ccccn3)c(=O)c2)cc1 | 45 | 2.8 | – | – | 52 | 1.7

Results, then the compound that gave them:

clearance [1] [mL/min/kg] | half-life [2] [h] | Ki (Histamine H3 receptor [3]) [nM] | Ki (Histamine H3 receptor [4]) [nM] | bioavailability [5] [%] | Kp at 1 h [6] | SMILES
23 | 2.2 | 4.4 | 1.8 | 12 | 1 | Cc1cccc(-n2ncc(-c3ccc(OCCCN4CCC[C@H]4C)cc3)cc2=O)n1
– | – | – | – | – | 1.8 | C[C@@H]1CCCN1CCCOc1ccc(-c2cn[nH]c(=O)c2)cc1
34 | 1.8 | 8.6 | 2.5 | 30 | 0.2 | Cc1cccnc1-n1ncc(-c2ccc(OCCCN3CCC[C@H]3C)cc2)cc1=O
12 | 0.3 | 7 | 2.7 | 1 | 5.1 | CC(C)n1ncc(-c2ccc(OCCCN3CCC[C@H]3C)cc2)cc1=O
32 | 1 | 5.5 | 1.9 | 19 | 3.3 | C[C@@H]1CCCN1CCCOc1ccc(-c2cnn(C)c(=O)c2)cc1
